# Source: BindingDB's records for patent US20250304537 (Repare Therapeutics, 2025)
# Target: T1, Membrane-associated tyrosine- and threonine-specific cdc2-inhibitory kinase (Homo sapiens, UniProt Q99640)
# T1 sequence (Q99640 whole entry): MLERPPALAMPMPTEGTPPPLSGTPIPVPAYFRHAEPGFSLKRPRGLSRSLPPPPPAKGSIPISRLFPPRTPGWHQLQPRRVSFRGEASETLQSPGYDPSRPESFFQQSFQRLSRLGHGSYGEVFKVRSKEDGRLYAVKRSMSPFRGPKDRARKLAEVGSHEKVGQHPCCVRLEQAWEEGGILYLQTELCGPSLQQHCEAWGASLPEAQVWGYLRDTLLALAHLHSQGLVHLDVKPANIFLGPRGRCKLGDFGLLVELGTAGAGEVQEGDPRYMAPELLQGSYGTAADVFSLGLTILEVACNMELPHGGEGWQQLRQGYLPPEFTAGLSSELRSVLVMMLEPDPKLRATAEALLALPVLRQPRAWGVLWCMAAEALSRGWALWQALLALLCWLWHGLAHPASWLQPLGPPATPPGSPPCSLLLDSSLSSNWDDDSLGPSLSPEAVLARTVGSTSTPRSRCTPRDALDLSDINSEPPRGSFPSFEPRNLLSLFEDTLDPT
# Experiment: Enzymatic Assay
# Method: Detection of Myt1 kinase activity utilized a recombinant human Myt1 kinase assay measuring the hydrolysis of ATP using a commercially available ADP-Glo Assay (ADP-Glo™ Kinase Assay from Promega, 10 000 assays, #V9102). Briefly, 5 μL recombinant human Myt1 (full length PKMYT1 recombinant human protein expressed in insect cells from Thermo Fisher #A33387; ˜80% purity) was prepared in reaction buffer (70 mM HEPES, 3 mM MgCl2, 3 mM MnCl2, 50 μg/ml PEG 20000, 3 μM Na-orthovanadate, 1.2 mM DTT) and added to 384 well white polystyrene, flat bottom well, non-treated, microplate (Corning #3572). After this, 5 μL of compounds (diluted in reaction buffer to 0.5% DMSO) was added to the microplate and the plate was spun briefly and incubated at 22° C. for 15 minutes. Ultra-Pure Adenosine Triphosphate (ATP) solution (ADP-Glo kit from Promega) was diluted in reaction buffer and 5 μL was added to the microplate, spun down briefly and incubated for 60 minutes at 30° C. The final Myt1 enzyme concentration was 18 nM and the final ATP concentration was 10 μM. After the 60-minute incubation, 15 μL of ADP-Glo reagent was added and the plate was spun briefly and sealed and incubated in the dark for 40 minutes at 22° C. Following this, 30 μL of kinase detection reagent was added per well and the plate was spun briefly, sealed and incubated for 45-60 minutes at 22° C. in the dark. Luminescence was read using the Envision (250 ms integration). The IC50 and the % max inhibition were calculated for each inhibitor compound tested.
row,Structure (SMILES),IC50 [µM]
1,"Cc1ccc2[nH]ncc2c1-c1nc(-c2ccc(C#N)cc2)nc(C(N)=O)c1N [US20250304537, Compound 133]",0.039
2,"Cc1ccc(O)cc1-c1nc(C2CCOCC2)nc(C(N)=O)c1N [US20250304537, Compound 44]",3.18
3,"Cc1ccc2[nH]ncc2c1-c1nc(-c2cccnc2O)nc(C(N)=O)c1N [US20250304537, Compound 598]",0.027
4,"CCc1ccc2[nH]ncc2c1-c1nc(-c2cccnc2)nc(C(N)=O)c1N [US20250304537, Compound 222]",> 2
5,"Cc1cc(-c2nc(C(N)=O)c(N)c(-c3c(C)ccc4[nH]ncc34)n2)ccn1 [US20250304537, Compound 136]",0.025
6,"Cc1ccc2[nH]ncc2c1-c1nc(-c2ccnnc2)cc(C(N)=O)c1N [US20250304537, Compound 120]",0.329
7,"CC(=O)N1CCN(c2nccc(-c3cc(-c4c(C)ccc5[nH]ncc45)c(N)c(C(N)=O)n3)n2)CC1 [US20250304537, Compound 215]",0.007
8,"Cc1ccc2[nH]ncc2c1-c1cc(-c2ccnc(OCC3(C#N)CC3)n2)nc(C(N)=O)c1N [US20250304537, Compound 324]",0.01
9,"Cc1ccc2[nH]ncc2c1-c1cc(-c2cccc(-c3ccccn3)n2)nc(C(N)=O)c1N [US20250304537, Compound 236]",0.046
10,"Cc1ccc(O)c(C)c1-c1nc(-c2ccnnc2)cc(C(N)=O)c1N [US20250304537, Compound 77]",0.027
11,"Cc1ccc2[nH]ncc2c1-c1cc(-c2ccnc(OCc3ccco3)n2)nc(C(N)=O)c1N [US20250304537, Compound 213]",0.007
12,"Cc1ccc2[nH]ncc2c1-c1cc(-c2ccnc(N[C@H]3CCOC[C@@H]3O)n2)nc(C(N)=O)c1N [US20250304537, Compound 368]",0.015

# More lines, in order of falling IC50, values ahead:
row,IC50 [µM],Structure (SMILES)
1,0.586,"Cc1ccc2[nH]ncc2c1-c1cc(-c2ccnc(OCC(F)(F)F)n2)nc(C(N)=O)c1N [US20250304537, Compound 165]"
2,0.142,"Cc1ccc2[nH]ncc2c1-c1nc(-c2ccc(N3CCN(C)CC3)cc2)nc(C(N)=O)c1N [US20250304537, Compound 134]"
3,0.131,"NC(=O)c1nc(-c2ccnnc2)cc(-c2cccc3[nH]ncc23)c1N [US20250304537, Compound 69]"
4,0.066,"Cc1ccc2[nH]ncc2c1-c1nc(-c2ccc3[nH]ncc3c2)nc(C(N)=O)c1N [US20250304537, Compound 130]"
5,0.037,"Cc1ccc2[nH]ncc2c1-c1nc(-c2cccc(N3CCN(C)CC3)c2)nc(C(N)=O)c1N [US20250304537, Compound 132]"
6,0.022,"COc1cc(-c2nc(C(N)=O)c(N)c(-c3c(C)ccc4[nH]ncc34)n2)ccn1 [US20250304537, Compound 135]"
7,0.004,"Cc1ccc2[nH]ncc2c1-c1cc(-c2ccnc(OCc3nccn3C)n2)nc(C(N)=O)c1N [US20250304537, Compound 301]"
